Experimental data taken from ChEMBL document CHEMBL3244391, “Antiviral activity of aliphatic nucleoside analogues: structure-function relationship” (1979).

Tested on: Vesicular stomatitis virus
Assay: Antiviral activity against Vesicular stomatitis virus infected in rabbit primary kidney cells assessed as inhibition of viral cytopathogenicity after 2 days
Assay type: functional

Row | SMILES | MID
1 | Nc1ncnc2c1ncn2C[C@@H](O)CO | 300 µg/mL
2 | OC[C@@H](O)Cn1cnc2c(O)ncnc21 | >400 µg/mL
3 | O=c1ccn(C[C@H](O)CO)c(=O)[nH]1 | 400 µg/mL
4 | Cc1cn(C[C@H](O)CO)c(=O)[nH]c1=O | >400 µg/mL
5 | Cc1cn(C[C@@H](O)CO)c(=O)[nH]c1=O | >400 µg/mL
6 | Cc1c[nH]c(=O)n(C[C@H](O)CO)c1=O | >400 µg/mL
7 | NCCn1cnc2c(N)ncnc21 | >400 µg/mL
8 | CC(=O)OC[C@H](Cn1cnc2c(N)ncnc21)OC(C)=O | 300 µg/mL
9 | Nc1ncnc2c1ncn2CC[C@H](O)CO | 100 µg/mL
10 | Nc1ncnc2c1ncn2C[C@@H](O)[C@@H](O)CO | 300 µg/mL
11 | Nc1ncnc2c1ncn2C[C@H](O)[C@H](O)CO | 100 µg/mL
12 | Nc1ncnc2c1ncn2C[C@@H](O)[C@H](O)CO | 300 µg/mL
13 | Nc1ncnc2c1ncn2C[C@H](O)[C@@H](O)CO | >400 µg/mL
14 | O=c1ccn(CC[C@H](O)CO)c(=O)[nH]1 | >400 µg/mL
15 | O=c1ccn(C[C@@H](O)[C@H](O)CO)c(=O)[nH]1 | 400 µg/mL
16 | Nc1ncnc2c1ncn2C(CO)CO | 300 µg/mL
17 | Nc1ncnc2c1ncn2CCCO | 200 µg/mL
18 | Nc1ncnc2c1ncn2CCO | >400 µg/mL
19 | Nc1ncnc2c1ncn2CC(O)CO (racemic) | 20 µg/mL

Row | SMILES | MID
20 | Nc1nc(O)c2c(ncn2CC(O)CO)n1 (racemic) | >400 µg/mL
21 | Nc1ncnc2c1ncn2CCC(O)CO (racemic) | 200 µg/mL
22 | Nc1ncnc2c1ncn2CCC(O)CCO (racemic) | >400 µg/mL
23 | Nc1nc(N)c2ncn(CC(O)CO)c2n1 (racemic) | >400 µg/mL
24 | CSc1nc(N)c2ncn(CC(O)CO)c2n1 (racemic) | >400 µg/mL
25 | Nc1ncnc2c1nc(O)n2CC(O)CO (racemic) | >400 µg/mL
26 | Nc1ncnc2c1nc(S)n2CC(O)CO (racemic) | >400 µg/mL
27 | CNc1ncnc2c1ncn2CC(O)CO (racemic) | >400 µg/mL
28 | CN(C)c1ncnc2c1ncn2CC(O)CO (racemic) | >400 µg/mL
29 | OCC(O)Cn1cnc2c(S)ncnc21 (racemic) | >400 µg/mL
30 | Nc1nc2c(ncn2CC(O)CO)c(=O)[nH]1 (racemic) | >400 µg/mL
31 | Nc1c2ncn(CC(O)CO)c2nc[n+]1[O-] (racemic) | >400 µg/mL
32 | Nc1ccn(CC(O)CO)c(=O)n1 (racemic) | 400 µg/mL
33 | O=c1cnn(CC(O)CO)c(=O)[nH]1 (racemic) | >400 µg/mL
34 | CCC(=O)OCC(Cn1cnc2c(N)ncnc21)OC(=O)CC (racemic) | 300 µg/mL
35 | CCCCCCCCCCCCCCCC(=O)OCC(O)Cn1cnc2c(N)ncnc21 (racemic) | >400 µg/mL
36 | CC(C)(C)C(=O)OCC(O)Cn1cnc2c(N)ncnc21 (racemic) | >400 µg/mL
37 | CC(C)(C)C(=O)OCC(Cn1cnc2c(N)ncnc21)OC(=O)C(C)(C)C (racemic) | >400 µg/mL
38 | COC(CO)Cn1cnc2c(N)ncnc21 (racemic) | 300 µg/mL

Row | SMILES | MID
39 | COCC(O)Cn1cnc2c(N)ncnc21 (racemic) | >400 µg/mL
40 | COCC(Cn1cnc2c(N)ncnc21)OC (racemic) | 300 µg/mL
41 | [N-]=[N+]=NCC(O)Cn1cnc2c(N)ncnc21 (racemic) | 200 µg/mL
42 | [N-]=[N+]=NCC(Cn1cnc2c(N)ncnc21)N=[N+]=[N-] (racemic) | 400 µg/mL
43 | Nc1ncnc2c1ncn2CC(N)CO (racemic) | 100 µg/mL
44 | NCC(O)Cn1cnc2c(N)ncnc21 (racemic) | 200 µg/mL
45 | NCC(N)Cn1cnc2c(N)ncnc21 (racemic) | >400 µg/mL
46 | Nc1ncnc2c1ncn2CC(O)C(O)CO (racemic) | 200 µg/mL
47 | O=c1ccn(CC(O)C(O)CO)c(=O)[nH]1 (racemic) | >400 µg/mL
48 | O=c1ccn(C[C@H](O)[C@H](O)CO)c(=O)[nH]1 (racemic) | >400 µg/mL
49 | O=c1ccn(CCC(O)CCO)c(=O)[nH]1 (racemic) | >400 µg/mL
50 | C[C@@H](O)[C@@H](O)Cn1cnc2c(N)ncnc21 (racemic) | 100 µg/mL
51 | CC(O)Cn1cnc2c(N)ncnc21 (racemic) | >400 µg/mL
52 | Nc1ncnc2c1nc(Br)n2CC(O)CO (racemic) | >200 µg/mL
53 | Nc1ncnc2c1ncn2C[C@H](O)CO [(S)-DHPA] | 7 µg/mL
54 | Nc1ccn([C@@H]2O[C@H](CO)[C@@H](O)[C@@H]2O)c(=O)n1 [CYTARABINE] | 10 µg/mL
55 | O=c1[nH]c(=O)n([C@H]2C[C@H](O)[C@@H](CO)O2)cc1I [IDOXURIDINE] | >400 µg/mL
56 | Nc1ncnc2c1ncn2[C@@H]1O[C@H](CO)[C@@H](O)[C@@H]1O [VIDARABINE] | 20 µg/mL
